14 molecules from US11266147B2, “Fungicidal oxadiazoles” (Bayer Aktiengesellschaft, priority 2017, dated 2022) can be followed below.

The structures appear in SMILES notation.

For data set [1], the system named is Colletotrichum lindemuthianum. In words: Colletotrichum lindemuthianum in vitro cell test. Type of data set: cell-based. The conditions noted are these: 144 h, liquid culture with spores, 6 days incubation, read-out: efficacy (inhibition of fungal growth); for inhibition at 4 ppm: 4 ppm of active ingredient; for inhibition at 20 ppm: 20 ppm of active ingredient. The method, then: Example E: Colletotrichum lindemuthianum In Vitro Cell Test • Solvent: DMSO • Culture medium: 14.6 g anhydrous D-glucose (VWR), 7.1 g Mycological Peptone (Oxoid), 1.4 g granulated Yeast Extract (Merck), QSP 1 liter • Inoculum: spores suspension Fungicides were solubilized in DMSO and the solution used to prepare the required range of concentrations. The final concentration of DMSO used in the assay was ≤[…]1%. A spore suspension of C. lindemuthianum was prepared and diluted to the desired spore density. Fungicides were evaluated for their ability to inhibit spores germination and mycelium growth in liquid culture assay. The compounds were added in the desired concentration to the culture medium with spores. After 6 days incubation, fungi-toxicity of compounds was determined by spectrometric measurement of mycelium growth. Inhibition of fungal growth was determined by comparing the absorbance values in wells containing the fungicides with the absorbance in control wells without fungicides.

A short description of data set [2]: LogP by HPLC on reversed phase columns (EEC directive 79/831 Annex V.A8). The conditions noted are these: method [a]: LC-UV, acidic range, 0.1% formic acid in water and acetonitrile, linear gradient 10% to 95% acetonitrile. Type of data set: physicochemical. The procedure:
[table] If more than one LogP value is available within the same method, all the values are given and separated by “+”. Calibration was done with straight-chain alkan2-ones (with 3 to 16 carbon atoms) with known LogP values (measurement of LogP values using retention times with linear interpolation between successive alkanones). Lambda-max-values were determined using UV-spectra from 200 nm to 400 nm and the peak values of the chromatographic signals.

For `FC(F)(F)c1nc(-c2cnc(N[C@@H]3CCOc4ccccc43)nc2)no1` [Compound I-01, N-[(4R)-3,4-dihydro-2H-chromen-4-yl]-5-[5-(trifluoromethyl)-1,2,4-oxadiazol-3-yl]pyrimidin-2-amine], in data set [1], the inhibition (commonly the percentage by which the read-out fell short of the control) at 4 ppm fell in the range of 70 to 79% and the inhibition at 20 ppm fell in the range of 80 to 89%.

As for `Fc1ccccc1Nc1ncc(-c2noc(C(F)(F)F)n2)cn1` [Compound I-04, N-(2-Fluorophenyl)-5-[5-(trifluoromethyl)-1,2,4-oxadiazol-3-yl]pyrimidin-2-amine], in data set [1], the inhibition at 4 ppm was in the range of 80 to 89% and the inhibition at 20 ppm lay in the range of 80 to 89%. In the case of `FC(F)(F)c1nc(-c2ccc(Nc3ncccn3)cc2)no1` [Compound I-05, N-{4-[5-(trifluoromethyl)-1,2,4-oxadiazol-3-yl]phenyl}pyrimidin-2-amine], in data set [1], the inhibition at 4 ppm fell in the range of 80 to 89% and the inhibition at 20 ppm fell in the range of 90 to 100%. Moreover, the chromatographic logP (commonly lipophilicity estimated from chromatographic retention) in data set [2] (reversed phase HPLC column) came to 3.5. For `COc1cccc(Nc2ncc(-c3noc(C(F)(F)Cl)n3)cn2)c1` [Compound I-80], the LogP in data set [2] was 3.96^[a]. The same measure, in the same setting: next, `COc1cc(Nc2ncc(-c3noc(C(F)(F)Cl)n3)cn2)ccc1C` [Compound I-81]: 4.51^[a]; `N#Cc1cccc(Nc2ncc(-c3noc(C(F)(F)Cl)n3)cn2)c1` [Compound I-82]: 3.72^[a]. Take `FC(F)(Cl)c1nc(-c2cnc(Nc3ccc(S(F)(F)(F)(F)F)cc3)nc2)no1` [Compound I-83]: the LogP in data set [2] is 5.00^[a]. For the molecule `N#CCc1ccc(Nc2ncc(-c3noc(C(F)(F)Cl)n3)cn2)cc1` [Compound I-84], in data set [2], the LogP is 3.46^[a]. Still for that read-out and setting: next, `FC(F)(F)c1cccc(Nc2ncc(-c3noc(C(F)(F)Cl)n3)cn2)c1` [Compound I-85]: 4.69^[a]. The same measure, in the same setting: next, `FC(F)(F)c1nc(-c2cnc(Nc3nc4c(s3)CCC4)nc2)no1` [Compound I-86]: 3.81^[a]; `FC(F)(F)c1nc(-c2cnc(Nc3ccc4ncccc4c3)nc2)no1` [Compound I-87]: 1.98^[a]. In the case of `Cn1ccnc1Nc1ncc(-c2noc(C(F)(F)F)n2)cn1` [Compound I-88], the LogP in data set [2] was 1.08^[a]. As for `FC(F)(Cl)c1nc(-c2cnc(Nc3nc4c(s3)CCC4)nc2)no1` [Compound I-89], the LogP in data set [2] is 4.03^[a]. Turning to `FC(F)(Cl)c1nc(-c2cnc(Nc3ccc4ncccc4c3)nc2)no1` [Compound I-90], in data set [2], the LogP is 2.13^[a].
